Laboratory results published in ChEMBL document CHEMBL1201862, “PubChem BioAssay data set” (2004).
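Grown in 96-well plates, cells were treated for 48 hours with each compound at five concentrations. Insufficient inhibition: endpoint recorded as highest concentration tested. GI50 = concentration required for 50% inhibition of growth.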 Active and inactive are the calls of the source. Rule as the data show it: active = GI50 up to about 1.1 µM and inactive = higher.

Key:
Test in all cases: NCI anticancer screen, dose series, 48 h
786-0 = test system: 786-0
ACHN = test system: ACHN
BT-549 = test system: BT-549
COLO 205 = test system: COLO 205
EKVX = test system: EKVX
Hs-578T = test system: Hs-578T
IGROV-1 = test system: IGROV-1
KM12 = test system: KM12
Malme-3M = test system: Malme-3M
NCI-H23 = test system: NCI-H23
OVCAR-4 = test system: OVCAR-4
OVCAR-8 = test system: OVCAR-8
PC-3 = test system: PC-3
SF-268 = test system: SF-268
SN12C = test system: SN12C
T47D = test system: T47D
UACC-62 = test system: UACC-62
UO-31 = test system: UO-31
RXF 393 = test system: RXF 393

Measured: GI50

O=C1CC2OCC=C3CN4CCC56c7ccccc7N1C5C2C3CC46O (stereo not given)
inactive: 786-0 > 100 µM | ACHN > 100 µM | BT-549 > 100 µM | COLO 205 > 100 µM | EKVX > 100 µM | Hs-578T > 100 µM | IGROV-1 > 100 µM | KM12 > 100 µM | Malme-3M > 100 µM | NCI-H23 > 100 µM | OVCAR-4 > 100 µM | OVCAR-8 > 100 µM | PC-3 > 100 µM | SF-268 > 100 µM | SN12C > 100 µM | T47D > 100 µM | UACC-62 > 100 µM | UO-31 > 100 µM

CCOc1cc(-c2nc3cc(F)ccc3s2)ccc1O
inactive: 786-0 14.4 µM | ACHN 16 µM | BT-549 16.1 µM | COLO 205 19.7 µM | EKVX 10.8 µM | IGROV-1 12.5 µM | KM12 17 µM | Malme-3M 15.3 µM | NCI-H23 18 µM | OVCAR-4 26.2 µM | OVCAR-8 15.8 µM | PC-3 14.5 µM | RXF 393 18.6 µM | SF-268 15.7 µM | SN12C 19.1 µM | T47D 11.6 µM | UACC-62 16.6 µM | UO-31 12.9 µM

CC(=O)Nc1ccc2nc(-c3cccc(Cl)c3)cc(O)c2c1
inactive: 786-0 13.4 µM | ACHN 64.6 µM | BT-549 15.4 µM | COLO 205 2.99 µM | EKVX > 100 µM | Hs-578T 2.59 µM | IGROV-1 13.4 µM | KM12 4.83 µM | Malme-3M 3.18 µM | NCI-H23 35.6 µM | OVCAR-8 36.9 µM | PC-3 4.72 µM | SN12C 32.2 µM | UACC-62 2.42 µM

OCC1CCCCCCCCCCC12SCCCS2 (stereo not given)
inactive: 786-0 > 100 µM | ACHN > 100 µM | BT-549 > 100 µM | COLO 205 > 100 µM | EKVX > 100 µM | Hs-578T > 100 µM | IGROV-1 > 100 µM | KM12 > 100 µM | Malme-3M > 100 µM | NCI-H23 > 100 µM | OVCAR-4 > 100 µM | PC-3 71 µM | SF-268 > 100 µM | T47D 84.3 µM | UACC-62 > 100 µM | UO-31 > 100 µM

COc1ccc(-n2sc3ncc([N+](=O)[O-])cc3c2=O)cc1
inactive: 786-0 > 100 µM | ACHN > 100 µM | BT-549 > 100 µM | COLO 205 > 100 µM | EKVX > 100 µM | Hs-578T 32.1 µM | IGROV-1 > 100 µM | KM12 > 100 µM | Malme-3M > 100 µM | NCI-H23 > 100 µM | OVCAR-4 > 100 µM | OVCAR-8 > 100 µM | PC-3 > 100 µM | SF-268 > 100 µM | SN12C > 100 µM | T47D > 100 µM | UACC-62 > 100 µM | UO-31 > 100 µM

CCC(CON(C)c1ccccc1)(SC)SC
inactive: 786-0 > 100 µM | ACHN > 100 µM | BT-549 > 100 µM | COLO 205 > 100 µM | EKVX > 100 µM | Hs-578T 80.2 µM | IGROV-1 > 100 µM | KM12 > 100 µM | Malme-3M 13.5 µM | NCI-H23 > 100 µM | OVCAR-4 > 100 µM | OVCAR-8 > 100 µM | PC-3 > 100 µM | SF-268 > 100 µM | SN12C > 100 µM | T47D 13.3 µM | UACC-62 > 100 µM | UO-31 95.1 µM

Cc1oc2ccccc2c(=O)c1Cn1nnc2ccccc21
inactive: 786-0 > 100 µM | ACHN 41.6 µM | COLO 205 42.9 µM | EKVX > 100 µM | Hs-578T 83.2 µM | KM12 > 100 µM | Malme-3M > 100 µM | NCI-H23 > 100 µM | OVCAR-4 53.3 µM | OVCAR-8 43.3 µM | PC-3 > 100 µM | SF-268 34.3 µM | SN12C > 100 µM | T47D 10.6 µM | UACC-62 41.7 µM | UO-31 47.3 µM

[O-][S+](Nc1ccccc1)c1ccc(Cl)c(Cl)c1 (stereo not given)
inactive: 786-0 53.8 µM | ACHN 62.5 µM | BT-549 17 µM | COLO 205 69.7 µM | EKVX 47.3 µM | Hs-578T 24.5 µM | IGROV-1 21.5 µM | KM12 14.7 µM | Malme-3M 56.6 µM | NCI-H23 54.5 µM | OVCAR-4 47.9 µM | OVCAR-8 66.4 µM | SF-268 26.4 µM | SN12C > 100 µM | T47D 10.3 µM | UACC-62 25.8 µM | UO-31 52 µM
